Among the data in article PMC3207250 (2011) are Ki values, retold here.

For orientation: Ki means a measure of affinity in units of concentration, obtained from inhibition or displacement.

The assay concerns the target Jak2 (Homo sapiens, UniProt O60674). The class given is biochemical.

Jak2, sequence (O60674 whole entry): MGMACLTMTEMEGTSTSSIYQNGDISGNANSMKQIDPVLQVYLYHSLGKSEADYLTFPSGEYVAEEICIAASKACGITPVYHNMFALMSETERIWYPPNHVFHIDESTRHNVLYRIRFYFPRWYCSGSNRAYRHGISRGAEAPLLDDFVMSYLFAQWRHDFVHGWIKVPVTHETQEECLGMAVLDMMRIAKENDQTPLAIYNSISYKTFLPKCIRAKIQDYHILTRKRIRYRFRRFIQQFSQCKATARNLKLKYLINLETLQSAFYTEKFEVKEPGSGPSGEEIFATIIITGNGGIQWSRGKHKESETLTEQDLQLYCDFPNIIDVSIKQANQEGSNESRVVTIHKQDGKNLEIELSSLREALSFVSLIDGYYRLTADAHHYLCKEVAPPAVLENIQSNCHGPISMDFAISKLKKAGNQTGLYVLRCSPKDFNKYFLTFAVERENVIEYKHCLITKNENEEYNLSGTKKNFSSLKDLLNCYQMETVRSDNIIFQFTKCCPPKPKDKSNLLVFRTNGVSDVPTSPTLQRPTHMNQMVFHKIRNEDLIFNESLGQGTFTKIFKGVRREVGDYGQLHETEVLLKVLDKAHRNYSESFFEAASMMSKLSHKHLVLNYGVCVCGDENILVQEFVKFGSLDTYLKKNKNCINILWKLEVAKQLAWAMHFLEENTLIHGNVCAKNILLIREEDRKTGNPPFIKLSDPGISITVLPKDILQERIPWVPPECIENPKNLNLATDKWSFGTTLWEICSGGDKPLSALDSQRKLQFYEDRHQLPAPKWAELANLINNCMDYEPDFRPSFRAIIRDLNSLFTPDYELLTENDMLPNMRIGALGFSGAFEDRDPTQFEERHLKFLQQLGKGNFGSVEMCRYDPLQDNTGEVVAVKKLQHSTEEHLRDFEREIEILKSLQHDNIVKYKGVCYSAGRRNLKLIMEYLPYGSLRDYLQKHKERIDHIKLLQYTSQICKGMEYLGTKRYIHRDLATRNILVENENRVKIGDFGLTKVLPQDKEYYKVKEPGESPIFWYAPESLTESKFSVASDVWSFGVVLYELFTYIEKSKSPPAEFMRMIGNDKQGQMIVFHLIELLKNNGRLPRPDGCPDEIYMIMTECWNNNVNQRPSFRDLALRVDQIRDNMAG

As for `NC(=O)Nc1sc(-c2ccc(F)cc2)cc1C(N)=O` [TPCA-1, 2-[(Aminocarbonyl)amino]-5-(4-fluorophenyl)-3-thiophenecarboxamide], the Ki was ~9 nM.
